Test results: patent US10130633B2, “Compounds” (BAYER PHARMA AKTIENGESELLSCHAFT, priority 2013, dated 2018)
Counter-ions that a name gives are not always drawn.

Tests used:
[1] = test system: constitutive active colorectal cancer cell (CRC) Wnt pathway; assay: HCT116 TOPFlash cellular reporter assay (Super TopFlash luciferase), constitutive active Wnt pathway; type: cell-based; conditions: HCT116 TOP reporter cells, 36 hours incubation, luciferase expression
Procedure: In order to discover and characterize small molecules which inhibit the constitutive active colorectal cancer cell (CRC) Wnt pathway, a cellular reporter assay was employed. […] Stable transfectants were generated by cotransfection with pcDNA3 and selection of stable transfected cells with 1 mg/ml G418.

[2] = test system: HCT116 FOP control reporter cell line; assay: HCT116 FOPFlash control reporter assay (FOP control vector, non-functional TCF elements); type: cell-based; conditions: HCT116 FOP control reporter cells, 36 hours incubation, luciferase expression
Excerpt: In a parallel approach, HCT116 cells were cotransfected with the FOP control vector and pcDNA3. The FOP vector is identical to the TOP construct, but it contains instead of functional TCF elements a randomized, non-functional sequence. For this transfection a stable transfected cell line was generated as well.

Row | SMILES | IC50 ([1]; Homo sapiens, HCT-116, 36 h) | IC50 ([2]; Homo sapiens, HCT-116, 36 h) | IC50 [1] | IC50 [2]
1 | CN1CCN(CC(=O)Nc2cc(C(=O)Nc3nnc(-c4cccc(C(F)(F)F)c4)s3)ccc2OC(F)(F)F)CC1 [Example 272, 3-{[(4-methylpiperazin-1-yl)acetyl]amino}-4-(trifluoromethoxy)-N-{5-[3-(trifluoromethyl)phenyl]-1,3,4-thiadiazol-2-yl}benzamide] | 545 nM | ≥ 50 µM | – | –
2 | O=C(Cc1ccccn1)Nc1cc(C(=O)Nc2ccc(-c3ccccc3F)nc2)ccc1OC1CC1 [Example 238, 4-(cyclopropyloxy)-N-[6-(2-fluorophenyl)pyridin-3-yl]-3-[(pyridin-2-ylacetyl)amino]benzamide] | 1750 nM | ≥ 50 µM | – | –
3 | COCCNC(=O)c1ccc(C(=O)Nc2nnc(-c3ccccc3)s2)cc1NC(=O)CN1CCN(C)CC1 [Example 155, N^1-(2-methoxyethyl)-2-{[(4-methylpiperazin-1-yl)acetyl]amino}-N^4-(5-phenyl-1,3,4-thiadiazol-2-yl)terephthalamide] | 592 nM | 32.5 µM | – | –
4 | CC(C(=O)Nc1cc(NC(=O)c2ccc(-c3ccccc3F)nc2)ccc1OC(F)(F)F)N1CCOCC1 (stereo not drawn) [Example 206, 6-(2-fluorophenyl)-N-[3-{[2-(morpholin-4-yl)propanoyl]amino}-4-(trifluoromethoxy)phenyl] nicotinamide] | – | 36.5 µM | 87.6 nM | –
5 | COCc1ccc(C(=O)Nc2nnc(-c3ccccc3C)s2)cc1NC(=O)C1(N2CCN(C)CC2)CC1 [Example 258, 4-(methoxymethyl)-N-[5-(2-methylphenyl)-1,3,4-thiadiazol-2-yl]-3-({[1-(4-methylpiperazin-1-yl)cyclopropyl]carbonyl}amino)benzamide trifluoroacetate (1:1)] | 45.5 nM | 24 µM | – | –
6 | O=C(CN1CCN(CC(F)F)CC1)Nc1cc(C(=O)Nc2ccc(-c3ccccc3F)nc2)ccc1OC(F)(F)F [Example 100, 3-({[4-(2,2-difluoroethyl)piperazin-1-yl]acetyl}amino)-N-[6-(2-fluorophenyl)pyridin-3-yl]-4-(trifluoromethoxy)benzamide] | 858 nM | ≥ 50 µM | – | –
7 | CC(C(=O)Nc1cc(NC(=O)c2ccc(-c3cccc(F)c3)nc2)ccc1OC(F)(F)F)N1C[C@@H]2C[C@H]1CO2 (relative stereo) [Example 222, 6-(3-fluorophenyl)-N-[3-({(2S*)-2-[(1S,4S)-2-oxa-5-azabicyclo[2.2.1]hept-5-yl]propanoyl}amino)-4-(trifluoromethoxy)phenyl] nicotinamide] | – | – | 263 nM | 15.2 µM
8 | CC(C(=O)Nc1cc(C(=O)Nc2nnc(-c3ccccc3)s2)ccc1CS(C)(=O)=O)N1CCN(C)CC1 (stereo not drawn) [Example 232, 3-{[2-(4-methylpiperazin-1-yl)propanoyl]amino}-4-[(methylsulfonyl)methyl]-N-(5-phenyl-1,3,4-thiadiazol-2-yl)benzamide] | – | – | 2200 nM | ≥ 50 µM
9 | CC(C(=O)Nc1cc(C(=O)Nc2ccc(-c3cc(F)cc(F)c3)nc2)ccc1OC(F)(F)F)N1CC2CCC(C1)O2 (stereo not drawn) [Example 194, N-[6-(3,5-difluorophenyl)pyridin-3-yl]-3-{[2-(8-oxa-3-azabicyclo[3.2.1]oct-3-yl)propanoyl]amino}-4-(trifluoromethoxy)benzamide] | – | – | 39.9 nM | 35 µM
10 | COc1ccc(C(=O)Nc2nnc(-c3ccccc3)s2)cc1NC(=O)CN1CCN(C)CC1 [Example 91, 4-methoxy-3-{[(4-methylpiperazin-1-yl)acetyl]amino}-N-(5-phenyl-1,3,4-thiadiazol-2-yl)benzamide] | 650 nM | 44 µM | – | –
11 | Cc1ccccc1-c1nnc(NC(=O)c2ccc(OC(F)(F)F)c(NC(=O)C3(N4CCN(C)CC4)CC3)c2)s1 [Example 271, N-[5-(2-methylphenyl)-1,3,4-thiadiazol-2-yl]-3-({[1-(4-methylpiperazin-1-yl)cyclopropyl]carbonyl}amino)-4-(trifluoromethoxy)benzamide] | 480 nM | ≥ 50 µM | – | –
12 | CC(C(=O)Nc1cc(C(=O)Nc2ccc(-c3cccc(F)c3)nc2)ccc1OC(F)(F)F)N1C[C@@H]2C[C@H]1CO2 (relative stereo) [Example 244, N-[6-(3-fluorophenyl)pyridin-3-yl]-3-({(2S*)-2-[(1S,4S)-2-oxa-5-azabicyclo[2.2.1]hept-5-yl]propanoyl}amino)-4-(trifluoromethoxy)benzamide] | – | – | 120 nM | ≥ 50 µM
13 | CC(C(=O)Nc1cc(C(=O)Nc2ccc(-c3cc(F)cc(F)c3)nc2)ccc1OC(F)(F)F)N1CCOCC1 (stereo not drawn) [Example 246, N-[6-(3,5-difluorophenyl)pyridin-3-yl]-3-{[2-(morpholin-4-yl)propanoyl]amino}-4-(trifluoromethoxy)benzamide] | – | – | 47.5 nM | 27.8 µM
14 | O=C(Nc1nnc(-c2ccccc2)s1)c1ccc(Cl)c(NC(=O)C2(N3CCN(C4CC4)CC3)CC2)c1 [Example 262, 4-chloro-3-({[1-(4-cyclopropylpiperazin-1-yl)cyclopropyl]carbonyl}amino)-N-(5-phenyl-1,3,4-thiadiazol-2-yl)benzamide trifluoroacetate (1:1)] | 195 nM | ≥ 50 µM | – | –

Further molecules by falling IC50 ([1]; Homo sapiens, HCT-116, 36 h), results first:

Row | IC50 ([1]; Homo sapiens, HCT-116, 36 h) | IC50 ([2]; Homo sapiens, HCT-116, 36 h) | IC50 [1] | IC50 [2] | SMILES
15 | 450 nM | 42 µM | – | – | CC(C(=O)Nc1cc(C(=O)Nc2ccc(-c3ccc(O)c(F)c3)nc2)ccc1OC(F)(F)F)N1CCOCC1 (stereo not drawn) [Example 110, N-[6-(3-fluoro-4-hydroxyphenyl)pyridin-3-yl]-3-{[2-(morpholin-4-yl)propanoyl]amino}-4-(trifluoromethoxy)benzamide]
16 | 433 nM | ≥ 50 µM | – | – | CN1CCN(CC(=O)Nc2cc(C(=O)Nc3nnc(-c4ccccc4)s3)ccc2Br)CC1 [Example 94, 4-bromo-3-{[(4-methylpiperazin-1-yl)acetyl]amino}-N-(5-phenyl-1,3,4-thiadiazol-2-yl)benzamide]
17 | 375 nM | 6.3 µM | – | – | O=C(CN1C[C@@H]2C[C@H]1CO2)Nc1cc(C(=O)Nc2ccc(-c3cc(F)cc(F)c3)nc2)ccc1OC(F)(F)F [Example 214, N-[6-(3,5-difluorophenyl)pyridin-3-yl]-3-{[(1S,4S)-2-oxa-5-azabicyclo[2.2.1]hept-5-ylacetyl]amino}-4-(trifluoromethoxy)benzamide]
18 | 375 nM | ≥ 50 µM | – | – | CCc1ccccc1-c1nnc(NC(=O)c2ccc(OC(F)(F)F)c(NC(=O)CN3CCOCC3)c2)s1 [Example 269, N-[5-(2-ethylphenyl)-1,3,4-thiadiazol-2-yl]-3-[(morpholin-4-ylacetyl)amino]-4-(trifluoromethoxy)benzamide]
19 | 365 nM | ≥ 50 µM | – | – | O=C(CN1CCOCC1)Nc1cc(C(=O)Nc2nnc(-c3ccccc3)s2)ccc1OCC1CC1 [Example 268, 4-(cyclopropylmethoxy)-3-[(morpholin-4-ylacetyl)amino]-N-(5-phenyl-1,3,4-thiadiazol-2-yl)benzamide]
20 | 365 nM | ≥ 50 µM | – | – | CN1CCN(CC(=O)Nc2cc(C(=O)Nc3nnc(-c4cccc(C#N)c4)s3)ccc2OC(F)(F)F)CC1 [Example 267, N-[5-(3-cyanophenyl)-1,3,4-thiadiazol-2-yl]-3-{[(4-methylpiperazin-1-yl)acetyl]amino}-4-(trifluoromethoxy)benzamide]
21 | 293 nM | 10 µM | – | – | CN(C)C1(C(=O)Nc2cc(C(=O)Nc3ccc(-c4ccccc4F)nc3)ccc2OC2CC2)CC1 [Example 140, 4-(cyclopropyloxy)-3-({[1-(dimethylamino)cyclopropyl]carbonyl}amino)-N-[6-(2-fluorophenyl)pyridin-3-yl]benzamide]
22 | 260 nM | 3.6 µM | – | – | O=C(CN1CC2CCC(C1)O2)Nc1cc(NC(=O)c2ccc(-c3cc(F)cc(F)c3)nc2)ccc1OC(F)(F)F [Example 216, 6-(3,5-difluorophenyl)-N-{3-[(8-oxa-3-azabicyclo[3.2.1]oct-3-ylacetyl)amino]-4-(trifluoromethoxy)phenyl} nicotinamide]
23 | 255 nM | ≥ 50 µM | – | – | Cc1ccccc1-c1nnc(NC(=O)c2ccc(OC3CC3)c(NC(=O)CN3CCN(C)CC3)c2)s1 [Example 264, 4-(cyclopropyloxy)-N-[5-(2-methylphenyl)-1,3,4-thiadiazol-2-yl]-3-{[(4-methylpiperazin-1-yl)acetyl]amino}benzamide]
24 | 175 nM | – | – | 42 µM | CC(C(=O)Nc1cc(NC(=O)c2ccc(-c3cc(F)cc(F)c3)nc2)ccc1OC(F)(F)F)N1CCOCC1 (stereo not drawn) [Example 187, 6-(3,5-difluorophenyl)-N-[3-{[2-(morpholin-4-yl)propanoyl]amino}-4-(trifluoromethoxy)phenyl] nicotinamide]
25 | 156 nM | ≥ 50 µM | – | – | O=C(CN1CCOCC1)Nc1cc(NC(=O)c2ccc(-c3c(F)cccc3F)nc2)ccc1OC(F)(F)F [Example 29, 6-(2,6-difluorophenyl)-N-{3-[(morpholin-4-ylacetyl)amino]-4-(trifluoromethoxy)phenyl}nicotinamide]
26 | 98.5 nM | ≥ 50 µM | – | – | O=C(CN1CC2CCC(C1)O2)Nc1cc(C(=O)Nc2ccc(-c3cc(F)cc(F)c3)nc2)ccc1OC(F)(F)F [Example 73, N-[6-(3,5-difluorophenyl)pyridin-3-yl]-3-[(8-oxa-3-azabicyclo[3.2.1]oct-3-ylacetyl)amino]-4-(trifluoromethoxy)benzamide]
27 | 40.3 nM | ≥ 50 µM | – | – | O=C(CN1CCOCC1)Nc1cc(C(=O)Nc2ccc(-c3ccccc3F)nc2)ccc1OC(F)(F)F [Example 5, N-[6-(2-fluorophenyl)pyridin-3-yl]-3-[(morpholin-4-ylacetyl)amino]-4-(trifluoromethoxy)benzamide]
